Test results published in US20060211698A1, “Bicyclic heteroaryl derivatives for treating viruses” (Genelabs, Inc., priority 2005, published 2006).

Molecular target: T1, HCV-NS5b (Hepatitis C virus genotype 1b, UniProt Q9WMX2)
T1 construct: The cloned fragment was missing the C terminus 21 amino acid residues; (His)6 (C); made in house; host or cells: XL-1 cells (E. coli)
Test: HCV-NS5b Enzyme Assay
Assay type: biochemical
Details: 1 μM test compound; incorporation of [3H]-UTP, 37° C., 2 hours
In short: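 The NS5B construct lacks its C-terminal 21 residues, carries a C-terminal His6 tag and was expressed in E. coli. [^3H]-UTP incorporation on a biotinylated HCV heteropolymeric template (10 ng/μL) with 10 μM each NTP, pH 7.5, 5 mM MgCl2 and 5% DMSO ran 2 h at 37° C and was read by SPA scintillation. IC50s came from 10-point 2-fold series starting at 50 or 2 μM.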

In the case of `COc1ncccc1-c1ccc(-c2c(C3CCCCC3)c3ccc(C(=O)O)cc3n2CC(=O)N2CCOCC2)cc1` [Compound 304, 3-Cyclohexyl-2-[4-(2-methoxy-pyridin-3-yl)-phenyl]-1-(2-morpholin-4-yl-2-oxo-ethyl)-1H-indole-6-carboxylic acid], the inhibition at 1 µM is reported as 98.5%.
